In US6461611B1, “Agents for the prevention of damages caused by stress conditions” (Hadasit Medical Research Services & Development Limited, priority 1998, dated 2002):

Key:
ThR mRNA = test: Northern blot of ThR mRNA level in neonatal rat ventricular myocytes under normal conditions or hypoxia; format: cell-based
Procedure: RNA was prepared using TRI-Reagent (Molecular Research Center, Inc. Cincinnati) according to the manufacturer's instructions. […] For the detection of ThR a 250 nucleotide PCR product was used. The membrane was washed twice for 30 mins. at room temperature with 1×SSC containing 0.1% SDS and twice for 30 mins. at 55° C. with 0.1×SSC, containing 0.1% SDS. The blots were exposed for 2-4 days at −70° C. and the relative amounts of mRNA transcripts were analyzed by laser densitometry using an Ultrascan XL Enhanced Laser Densitometer and normalized relative to an internal β-actin controls.
Primary cultures of neonatal rat ventricular mycocytes were subjected to hypoxia conditions (0% oxygen, 20 torr), and the level of ThR transcripts were compared to the level of the receptor transcripts in cells under normal oxygen levels (21% oxygen). […] The 4.1 kb mRNA was detected following hybridization with full length ThR cDNA and the intensity of the bands was quantitated by densitometry and normalized to the actin transcript levels.
The level of ThR mRNA following hypoxia, in the presence of α-thrombin was also determined. For this, rat ventricular myocytes were subjected to serum free conditions and α-thrombin (5×10^−8M) was added for a period of 48 hours and the level of ThR was determined.
Therefore the effect of interruption of the signaling cascase on the protection effect was analyzed. For this, calphostin C, a protein kinase C (PKC) inhibitor was added during the activation of ThR with TRAP.

myocytes = test: LDH activity released into the medium of normal and hypoxic myocytes; format: cell-based, rat; conditions: calphostin C 10 nM or 100 nM in the presence and absence of TRAP (10 μM)
Procedure: FIG. 4B. LDH levels were measured in the medium of normal (A,B,E,G) and hypoxic (C,D,F,H) myocytes. TRAP (10 μM) was added (for 48 h) to normal cells (B,E,G) or prior to subjecting the cells to hypoxia (D,F,H). Cells were treated with calphostin C at 10 nM (E,F) or 100 nM (G,H). LDH levels were determined at 340 nm.
Cell viability under hypoxia conditions was measured by lactate dehydrogenase (LDH) assay of the medium by using diagnostic kit according to the manufacturer's instructions (Sigma, St. Louis, Mo.). Released LDH is a stable enzymatic marker that correlates with cell viability. Total LDH activity was determined in culture medium plus LDH released from the cells after treatment with 0.5% Triton X-100. All results are expressed as mean±SEM of triplicate sample (I—Weiscner, M S et al., 1998. Induction of endothelial cell PAS domain protein-1 by hypoxia: characterization and comparison with hypoxia-inducible factor-1-alpha. Blood, 92(7);2260-8. II—Brooks et al., 1998. Modulation of VEGF production by pH and glucose in retinal muller cells. Curr. Eye Res., 17(9):875-882).

For calphostin C, the “protection of ThR transcript level under hypoxia by TRAP” value (ThR mRNA; hypoxia, TRAP activated ThR in the presence of calphostin C (1 nM, 100 nM)) was “showed no longer the protection”, the “level of ThR mRNA” value (ThR mRNA; normal conditions, calphostin C 200 nM) was “did not affect” and the “level of ThR transcripts” value (ThR mRNA; normal conditions, calphostin C (1 nM and 100 nM) added together with TRAP (1 μM)) was “did not affect”. The “stressed hypoxic conditions as observed by the released LDH activity” value (myocytes) was “did not affect the stressed hypoxic conditions”.
